Calls of active or inactive are those of the source. How the calls were made is not given here.
Test system: HEK-293T cytotoxicity, luminescence
Assay: cytotoxicity in HEK-293T cells, dose response, cytotoxicity control for BCR NF-kB inhibitor project, luminescence, B-cell screen hits (AID 489021)

With `COc1ccc(/C=C\C(=O)O[C@@H]2C(O)C(O[C@@H]3OC(C)[C@H](O[C@@H]4OCC(O[C@H]5O[C@H](CO)[C@@H](O)C(O)C5O)C(O)C4O)C(O)C3O)[C@H](OC(=O)[C@]34CCC(C)(C)C[C@@H]3C3=CCC5[C@@]6(C)CC(O)C(O[C@@H]7OC(CO)C(O)[C@H](O)[C@H]7O)[C@@](C)(C(=O)O)C6CC[C@@]5(C)[C@]3(CO)CC4)O[C@H]2C)cc1` (stereo partly specified) the IC50 was 60.7 µM (inactive).

— PubChem BioAssay AID489021 (Sanford-Burnham Center for Chemical Genomics, 2010)
